Laboratory results: patent US4117003A, “Substituted aromatic naphthalene sulfonamides” (American Cyanamid Company, priority 1977, dated 1978)
Where a name gives a salt, the structure may show the parent alone. Read-outs that look alike come from different tables or passages of the source.

Columns and labels:
[1] = test system: whole complement in serum; test: Complement Level Reduction Test (in vivo, capillary tube assay of serum); details: Cavia porcellus, ip, guinea pig, 200 mg/kg i.p., read-out: In Vivo Activity (Guinea Pig) % Inhibition Intraperitoneal
[2] = test system: late components of human complement (C3-C9); test: Test, Code 035 (C3-C9 inhibitor); format: biochemical; details: activity in wells of a serial two-fold dilution assay; higher well number indicates higher activity
Description: (§1) This test measures the ability of activated human C1 to destroy fluid phase human C2 in the presence of C4 and appropriate dilutions of the test compound. An active inhibitor protects C2 from C1 and C4; (ii) Test, Code 035 (C3-C9 inhibitor). This test determines the ability of the late components of human complement (C3-C9) to lyse EAC 142 in the presence of appropriate dilutions of the test compound. An active inhibitor protects EAC 142 from lysis by human C3-C9; (iii) Test, Code 036 (C-Shunt inhibitor). In this test human erythrocytes rendered fragile are lysed in autologous serum via the shunt pathway activated by cobra venom factor in the presence of appropriate dilutions of the test compound. Inhibition of the shunt pathway results in failure of lysis; (iv) Forssman Vasculitis Test - Here, the well known complement dependent lesion, Forssman vasculitis, is produced in guinea pigs by intradermal injection of rabbit anti-Forssman antiserum. […]

[3] = target: T1, activated human C1 (Homo sapiens, UniProt P09871); test: Test, Code 026 (C1 inhibitor); format: biochemical; details: activity in wells of a serial two-fold dilution assay; higher well number indicates higher activity
T1 sequence (P09871 438-688 limits assumed): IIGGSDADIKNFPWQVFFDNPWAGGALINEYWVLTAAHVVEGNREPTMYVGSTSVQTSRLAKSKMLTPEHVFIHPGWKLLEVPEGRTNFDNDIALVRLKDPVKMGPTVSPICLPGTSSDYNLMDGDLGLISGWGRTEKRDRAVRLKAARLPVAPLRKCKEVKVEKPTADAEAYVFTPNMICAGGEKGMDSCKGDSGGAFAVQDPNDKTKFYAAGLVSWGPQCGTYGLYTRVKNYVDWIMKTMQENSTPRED
T1 sequence (P09871 16-437 limits assumed): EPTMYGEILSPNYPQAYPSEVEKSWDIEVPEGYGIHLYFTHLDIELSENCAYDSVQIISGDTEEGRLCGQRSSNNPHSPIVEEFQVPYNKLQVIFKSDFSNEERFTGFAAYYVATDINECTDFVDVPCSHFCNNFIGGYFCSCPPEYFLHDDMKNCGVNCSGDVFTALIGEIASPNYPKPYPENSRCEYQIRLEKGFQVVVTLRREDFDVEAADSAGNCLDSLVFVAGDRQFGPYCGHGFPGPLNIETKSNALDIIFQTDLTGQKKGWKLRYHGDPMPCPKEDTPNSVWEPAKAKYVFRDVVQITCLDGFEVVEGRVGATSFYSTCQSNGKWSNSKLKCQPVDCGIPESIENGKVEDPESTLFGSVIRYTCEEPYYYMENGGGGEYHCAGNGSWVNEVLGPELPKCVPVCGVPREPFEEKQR
Description: as §1

[4] = test system: shunt pathway activated by cobra venom factor; test: Test, Code 036 (C-Shunt inhibitor); format: cell-based, human; details: activity in wells of a serial two-fold dilution assay; higher well number indicates higher activity
Description: as §1

## O=S(=O)(O)c1cc(NS(=O)(=O)c2ccc3c(S(=O)(=O)Nc4cc(S(=O)(=O)O)cc(S(=O)(=O)O)c4)cc(S(=O)(=O)Nc4cc(S(=O)(=O)O)cc(S(=O)(=O)O)c4)cc3c2)cc(S(=O)(=O)O)c1 [5,5',5"-[1,3,6-Naphthalenetris(sulfonylimino)]tris-1,3-benzenedisulfonic acid hexasodium salt]
[1]; 0.5 h, 30 minutes
  inhibition at 200 mg/kg: -85%
[1]; 1 h, 60 minutes
  inhibition at 200 mg/kg: -86%
[1]; 2 h, 120 minutes
  inhibition at 200 mg/kg: -86%
[2]
  C-Late 0.35* Wells: N

## O=S(=O)(O)c1ccc(NS(=O)(=O)c2ccc3c(S(=O)(=O)Nc4ccc(S(=O)(=O)O)cc4)cc(S(=O)(=O)Nc4ccc(S(=O)(=O)O)cc4)cc3c2)cc1 [4,4',4"-[1,3,6-Naphthalenetris(sulfonylimino)]trisbenzenesulfonic acid trisodium salt]
[2]
  C-Late 0.35* Wells: N
[3]
  Cl 0.26* Wells: +4 Wells
[4]
  Shunt Inhibition 0.36* Wells: N
